Source: ChEMBL document CHEMBL4507325 (2021)

Key:
[1] = molecular target: Mu-type opioid receptor (Homo sapiens) (UniProt P35372); settings: Compound concentration 10.0 uM
[2] = molecular target: D(1A) dopamine receptor (Homo sapiens) (UniProt P21728); settings: Compound concentration 10.0 uM
[3] = molecular target: Aspartate aminotransferase, cytoplasmic (Homo sapiens, UniProt P17174); experiment: Aspartate transaminase assay (GOT1)
[4] = molecular target: Delta-type opioid receptor (Homo sapiens) (UniProt P41143); settings: Compound concentration 10.0 uM
[5] = molecular target: Beta-1 adrenergic receptor (Homo sapiens) (UniProt P08588); settings: Compound concentration 10.0 uM
[6] = molecular target: 5-hydroxytryptamine receptor 7 (Homo sapiens) (UniProt P34969); settings: Compound concentration 10.0 uM
[7] = molecular target: Alpha-2C adrenergic receptor (Homo sapiens) (UniProt P18825); settings: Compound concentration 10.0 uM
Chain of Alpha-2C adrenergic receptor (Homo sapiens) (P18825 whole entry): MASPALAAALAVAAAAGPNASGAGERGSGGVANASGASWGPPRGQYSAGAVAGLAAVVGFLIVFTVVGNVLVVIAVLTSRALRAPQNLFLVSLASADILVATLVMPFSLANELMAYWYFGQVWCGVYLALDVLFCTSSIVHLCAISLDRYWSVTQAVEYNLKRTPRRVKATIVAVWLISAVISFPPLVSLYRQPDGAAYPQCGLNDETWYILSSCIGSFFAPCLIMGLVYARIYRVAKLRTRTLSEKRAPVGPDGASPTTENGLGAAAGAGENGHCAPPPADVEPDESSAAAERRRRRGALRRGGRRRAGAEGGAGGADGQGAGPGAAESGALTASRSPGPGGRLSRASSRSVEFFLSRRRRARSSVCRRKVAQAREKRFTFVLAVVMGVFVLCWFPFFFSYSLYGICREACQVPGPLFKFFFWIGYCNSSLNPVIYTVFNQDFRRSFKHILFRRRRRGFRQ

[8] = molecular target: Endothelin-1 receptor (Homo sapiens) (UniProt P25101); settings: Compound concentration 10.0 uM
[9] = molecular target: Sodium-dependent serotonin transporter (Homo sapiens) (UniProt P31645); settings: Compound concentration 10.0 uM
[10] = molecular target: Histamine H1 receptor (Homo sapiens) (UniProt P35367); settings: Compound concentration 10.0 uM
Chain of Histamine H1 receptor (Homo sapiens) (P35367 whole entry): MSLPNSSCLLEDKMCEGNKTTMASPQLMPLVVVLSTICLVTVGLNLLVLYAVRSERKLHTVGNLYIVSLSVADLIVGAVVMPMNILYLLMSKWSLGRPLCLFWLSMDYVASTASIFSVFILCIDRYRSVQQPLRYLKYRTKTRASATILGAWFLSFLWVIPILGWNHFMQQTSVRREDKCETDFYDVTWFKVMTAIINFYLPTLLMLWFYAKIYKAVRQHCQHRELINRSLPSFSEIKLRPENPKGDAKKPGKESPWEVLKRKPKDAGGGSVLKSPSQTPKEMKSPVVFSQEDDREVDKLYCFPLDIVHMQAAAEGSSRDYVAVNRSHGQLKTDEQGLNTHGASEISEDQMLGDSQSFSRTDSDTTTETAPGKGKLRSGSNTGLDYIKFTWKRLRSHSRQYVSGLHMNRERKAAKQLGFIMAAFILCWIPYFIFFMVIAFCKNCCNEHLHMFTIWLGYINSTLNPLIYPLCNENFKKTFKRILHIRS

[11] = molecular target: Insulin receptor (Homo sapiens) (UniProt P06213); settings: Rattus norvegicus; Compound concentration 10.0 uM
Chain of Insulin receptor (Homo sapiens) (P06213 28-758 limits assumed): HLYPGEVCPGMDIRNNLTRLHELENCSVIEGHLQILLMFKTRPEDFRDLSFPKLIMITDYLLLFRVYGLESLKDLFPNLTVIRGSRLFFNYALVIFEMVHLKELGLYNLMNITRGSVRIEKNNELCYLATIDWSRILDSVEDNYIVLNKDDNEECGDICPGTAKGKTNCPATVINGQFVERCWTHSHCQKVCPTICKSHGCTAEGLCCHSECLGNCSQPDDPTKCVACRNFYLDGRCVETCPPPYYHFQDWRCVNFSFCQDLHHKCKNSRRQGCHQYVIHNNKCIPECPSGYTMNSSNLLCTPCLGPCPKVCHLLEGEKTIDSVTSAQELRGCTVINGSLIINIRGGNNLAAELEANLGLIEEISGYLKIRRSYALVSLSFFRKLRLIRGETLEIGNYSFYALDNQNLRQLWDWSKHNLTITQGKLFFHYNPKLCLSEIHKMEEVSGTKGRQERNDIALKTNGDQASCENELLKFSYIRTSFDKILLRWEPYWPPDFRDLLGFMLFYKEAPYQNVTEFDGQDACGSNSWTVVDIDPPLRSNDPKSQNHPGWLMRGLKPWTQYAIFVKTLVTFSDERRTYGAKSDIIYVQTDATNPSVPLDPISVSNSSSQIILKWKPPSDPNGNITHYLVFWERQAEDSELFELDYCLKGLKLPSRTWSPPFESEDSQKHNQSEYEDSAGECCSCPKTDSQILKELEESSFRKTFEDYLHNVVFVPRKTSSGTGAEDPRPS
Chain of Insulin receptor (Homo sapiens) (P06213 763-1382 limits assumed): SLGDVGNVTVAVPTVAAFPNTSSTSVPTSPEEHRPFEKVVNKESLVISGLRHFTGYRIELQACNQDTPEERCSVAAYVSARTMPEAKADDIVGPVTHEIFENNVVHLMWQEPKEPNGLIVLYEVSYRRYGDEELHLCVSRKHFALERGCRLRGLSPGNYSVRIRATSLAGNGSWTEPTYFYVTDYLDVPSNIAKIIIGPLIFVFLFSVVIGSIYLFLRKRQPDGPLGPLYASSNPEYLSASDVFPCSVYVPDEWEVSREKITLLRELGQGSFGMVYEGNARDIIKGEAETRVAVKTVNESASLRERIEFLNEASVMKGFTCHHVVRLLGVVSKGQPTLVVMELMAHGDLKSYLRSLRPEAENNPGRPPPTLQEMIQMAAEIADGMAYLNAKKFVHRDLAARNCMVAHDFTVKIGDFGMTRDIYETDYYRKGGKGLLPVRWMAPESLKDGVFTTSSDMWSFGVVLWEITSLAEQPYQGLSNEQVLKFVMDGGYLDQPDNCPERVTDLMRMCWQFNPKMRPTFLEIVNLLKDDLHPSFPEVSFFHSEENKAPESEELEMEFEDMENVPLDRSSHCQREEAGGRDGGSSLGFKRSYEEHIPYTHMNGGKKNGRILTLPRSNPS

[12] = molecular target: Alpha-2C adrenergic receptor (Homo sapiens) (UniProt P18825); settings: Compound concentration 10.0 uM; remark: listed apart in the source
[13] = molecular target: Muscarinic acetylcholine receptor M2 (Homo sapiens) (UniProt P08172); settings: Compound concentration 10.0 uM
[14] = molecular target: GABA-A receptor; anion channel (Rattus norvegicus) (UniProt O09028+P15431+P18506+P18508+P19969+P20236+P23574+P23576+P28471+P28473+P30191+P62813+P63079+P63138+Q91ZM7+Q9ES14); settings: Compound concentration 10.0 uM
[15] = molecular target: D(4) dopamine receptor (Homo sapiens) (UniProt P21917); settings: Compound concentration 10.0 uM
[16] = molecular target: Muscarinic acetylcholine receptor M4 (Homo sapiens) (UniProt P08173); settings: Compound concentration 10.0 uM
[17] = molecular target: B2 bradykinin receptor (Homo sapiens) (UniProt P30411); settings: Compound concentration 10.0 uM
[18] = molecular target: Muscarinic acetylcholine receptor M3 (Homo sapiens) (UniProt P20309); settings: Compound concentration 10.0 uM
[19] = molecular target: Histamine H1 receptor (Homo sapiens) (UniProt P35367); settings: Compound concentration 10.0 uM; remark: listed apart in the source
[20] = molecular target: 5-hydroxytryptamine receptor 1B (Homo sapiens) (UniProt P28222); settings: Compound concentration 10.0 uM
[21] = molecular target: Vasopressin V1a receptor (Homo sapiens) (UniProt P37288); settings: Compound concentration 10.0 uM
Chain of Vasopressin V1a receptor (Homo sapiens) (P37288 whole entry, looked up): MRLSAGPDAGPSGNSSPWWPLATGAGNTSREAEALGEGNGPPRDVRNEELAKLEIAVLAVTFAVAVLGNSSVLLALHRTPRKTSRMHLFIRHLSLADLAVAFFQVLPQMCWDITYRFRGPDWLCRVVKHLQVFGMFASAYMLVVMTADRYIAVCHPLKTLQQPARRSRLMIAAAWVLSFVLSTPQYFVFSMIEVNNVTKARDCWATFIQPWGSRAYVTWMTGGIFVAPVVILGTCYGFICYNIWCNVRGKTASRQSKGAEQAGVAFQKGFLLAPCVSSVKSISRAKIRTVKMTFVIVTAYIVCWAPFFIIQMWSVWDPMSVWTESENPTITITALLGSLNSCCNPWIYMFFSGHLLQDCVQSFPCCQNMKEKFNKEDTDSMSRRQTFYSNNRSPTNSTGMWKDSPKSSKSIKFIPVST

[22] = molecular target: Histamine H2 receptor (Homo sapiens) (UniProt P25021); settings: Compound concentration 10.0 uM
[23] = molecular target: Glutamate NMDA receptor (Rattus norvegicus) (UniProt P35439+Q00959+Q00960+Q00961+Q62645+Q8VHN2+Q9R1M7); settings: Compound concentration 10.0 uM
Rattus norvegicus [24] = organism: Rattus norvegicus; settings: Compound concentration 10.0 uM
[25] = molecular target: Alpha-2B adrenergic receptor (Homo sapiens) (UniProt P18089); settings: Compound concentration 10.0 uM
Chain of Alpha-2B adrenergic receptor (Homo sapiens) (P18089 whole entry): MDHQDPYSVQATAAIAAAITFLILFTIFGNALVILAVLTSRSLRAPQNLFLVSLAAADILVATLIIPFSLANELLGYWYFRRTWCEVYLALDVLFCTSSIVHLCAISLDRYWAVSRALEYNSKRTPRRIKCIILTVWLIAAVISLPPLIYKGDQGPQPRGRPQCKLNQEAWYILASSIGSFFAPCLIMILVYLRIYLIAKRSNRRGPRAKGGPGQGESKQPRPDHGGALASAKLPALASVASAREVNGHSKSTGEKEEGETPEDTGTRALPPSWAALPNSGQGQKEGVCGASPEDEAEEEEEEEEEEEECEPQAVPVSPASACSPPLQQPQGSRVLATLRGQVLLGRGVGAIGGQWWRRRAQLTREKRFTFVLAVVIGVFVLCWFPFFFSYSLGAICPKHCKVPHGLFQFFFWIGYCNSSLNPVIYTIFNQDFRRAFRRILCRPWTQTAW

[26] = molecular target: 5-hydroxytryptamine receptor 1A (Homo sapiens) (UniProt P08908); settings: Compound concentration 10.0 uM
[27] = molecular target: D(3) dopamine receptor (Homo sapiens) (UniProt P35462); settings: Compound concentration 10.0 uM
[28] = molecular target: Muscarinic acetylcholine receptor M1 (Homo sapiens) (UniProt P11229); settings: Compound concentration 10.0 uM
Chain of Muscarinic acetylcholine receptor M1 (Homo sapiens) (P11229 whole entry): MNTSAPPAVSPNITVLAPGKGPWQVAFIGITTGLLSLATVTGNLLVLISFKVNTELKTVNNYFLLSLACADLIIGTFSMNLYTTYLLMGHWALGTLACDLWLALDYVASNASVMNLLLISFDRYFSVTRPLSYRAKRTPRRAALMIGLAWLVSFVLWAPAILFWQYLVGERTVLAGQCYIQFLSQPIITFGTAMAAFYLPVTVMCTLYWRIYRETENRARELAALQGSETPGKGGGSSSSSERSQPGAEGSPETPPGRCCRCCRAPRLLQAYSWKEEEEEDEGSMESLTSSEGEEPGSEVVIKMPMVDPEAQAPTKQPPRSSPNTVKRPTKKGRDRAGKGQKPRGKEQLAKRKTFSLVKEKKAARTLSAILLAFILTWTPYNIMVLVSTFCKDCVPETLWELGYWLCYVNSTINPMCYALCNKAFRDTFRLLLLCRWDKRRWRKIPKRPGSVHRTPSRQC

[29] = molecular target: Type-2 angiotensin II receptor (Homo sapiens) (UniProt P50052); settings: Compound concentration 10.0 uM
[30] = molecular target: Muscarinic acetylcholine receptor M1 (Homo sapiens) (UniProt P11229); settings: Compound concentration 10.0 uM; remark: listed apart in the source
[31] = molecular target: Sodium-dependent dopamine transporter (Homo sapiens) (UniProt Q01959); settings: Compound concentration 10.0 uM
[32] = molecular target: Histamine H3 receptor (Homo sapiens) (UniProt Q9Y5N1); settings: Compound concentration 10.0 uM
[33] = molecular target: 5-hydroxytryptamine receptor 2B (Homo sapiens) (UniProt P41595); settings: Compound concentration 10.0 uM
Chain of 5-hydroxytryptamine receptor 2B (Homo sapiens) (P41595 whole entry): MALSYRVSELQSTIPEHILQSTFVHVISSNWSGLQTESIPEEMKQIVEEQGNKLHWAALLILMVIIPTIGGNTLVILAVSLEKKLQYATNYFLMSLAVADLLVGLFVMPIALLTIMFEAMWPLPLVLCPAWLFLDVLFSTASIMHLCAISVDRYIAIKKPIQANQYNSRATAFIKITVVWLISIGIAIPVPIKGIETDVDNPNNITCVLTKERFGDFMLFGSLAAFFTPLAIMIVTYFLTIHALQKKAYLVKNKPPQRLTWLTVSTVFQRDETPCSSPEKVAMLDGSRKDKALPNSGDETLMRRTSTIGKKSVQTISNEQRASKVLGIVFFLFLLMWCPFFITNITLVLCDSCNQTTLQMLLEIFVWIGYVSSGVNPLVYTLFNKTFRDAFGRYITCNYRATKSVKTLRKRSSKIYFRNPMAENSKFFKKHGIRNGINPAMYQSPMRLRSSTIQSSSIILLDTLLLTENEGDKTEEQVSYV

[34] = molecular target: Kappa-type opioid receptor (Homo sapiens) (UniProt P41145); settings: Compound concentration 10.0 uM
[35] = molecular target: Beta-3 adrenergic receptor (Homo sapiens) (UniProt P13945); settings: Compound concentration 10.0 uM
Chain of Beta-3 adrenergic receptor (Homo sapiens) (P13945 whole entry, looked up): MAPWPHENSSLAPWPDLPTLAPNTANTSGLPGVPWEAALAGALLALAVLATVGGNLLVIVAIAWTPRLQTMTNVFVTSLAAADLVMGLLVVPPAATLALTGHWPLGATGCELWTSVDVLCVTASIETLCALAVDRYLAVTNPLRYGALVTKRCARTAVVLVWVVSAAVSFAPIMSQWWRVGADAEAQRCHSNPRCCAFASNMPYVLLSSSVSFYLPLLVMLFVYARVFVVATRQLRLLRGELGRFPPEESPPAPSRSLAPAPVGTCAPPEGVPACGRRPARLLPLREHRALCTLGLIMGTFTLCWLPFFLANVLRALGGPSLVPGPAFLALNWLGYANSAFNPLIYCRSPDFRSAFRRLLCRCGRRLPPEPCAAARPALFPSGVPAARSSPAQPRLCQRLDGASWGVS

[36] = molecular target: Glutamate receptor 2 (Homo sapiens) (UniProt P42262); settings: Rattus norvegicus; Compound concentration 10.0 uM
[37] = molecular target: B1 bradykinin receptor (Homo sapiens) (UniProt P46663); settings: Compound concentration 10.0 uM
Rattus norvegicus [38] = organism: Rattus norvegicus; settings: Compound concentration 10.0 uM; remark: listed apart in the source
[39] = molecular target: 5-hydroxytryptamine receptor 3A (Homo sapiens) (UniProt P46098); settings: Compound concentration 10.0 uM
[40] = molecular target: Alpha-2B adrenergic receptor (Homo sapiens) (UniProt P18089); settings: Compound concentration 10.0 uM; remark: listed apart in the source
[41] = molecular target: Alpha-2A adrenergic receptor (Homo sapiens) (UniProt P08913); settings: Compound concentration 10.0 uM
[42] = molecular target: Beta-2 adrenergic receptor (Homo sapiens) (UniProt P07550); settings: Compound concentration 10.0 uM
[43] = molecular target: D(1B) dopamine receptor (Homo sapiens) (UniProt P21918); settings: Compound concentration 10.0 uM
[44] = molecular target: 5-hydroxytryptamine receptor 1E (Homo sapiens) (UniProt P28566); settings: Compound concentration 10.0 uM
[45] = molecular target: Glucocorticoid receptor (Homo sapiens) (UniProt P04150); settings: Compound concentration 10.0 uM
[46] = molecular target: Adenosine receptor A1 (Homo sapiens) (UniProt P30542); settings: Compound concentration 10.0 uM

Chain of Mu-type opioid receptor (Homo sapiens) (P35372 whole entry): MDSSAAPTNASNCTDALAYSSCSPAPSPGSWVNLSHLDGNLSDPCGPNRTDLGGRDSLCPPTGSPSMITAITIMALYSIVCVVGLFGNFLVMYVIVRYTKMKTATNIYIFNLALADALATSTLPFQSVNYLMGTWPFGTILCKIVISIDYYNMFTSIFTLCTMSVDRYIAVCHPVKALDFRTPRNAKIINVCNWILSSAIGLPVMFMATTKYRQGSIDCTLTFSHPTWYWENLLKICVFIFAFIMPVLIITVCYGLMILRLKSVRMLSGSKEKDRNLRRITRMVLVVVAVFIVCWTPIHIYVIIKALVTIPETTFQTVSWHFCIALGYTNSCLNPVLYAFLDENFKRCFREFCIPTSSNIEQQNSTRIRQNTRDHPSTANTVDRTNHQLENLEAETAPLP

## Cc1ccccc1Oc1cc(-n2c(=O)cc(C(F)(F)F)[nH]c2=O)c2ccccc2c1Cl [BAY-069]
[1]
  inhibition: 20.9%
[2]
  inhibition: -0.83%
[3]
  IC50: > 50 µM (not active)
[4]
  inhibition: 14.5%
[5]
  inhibition: 3%
[6]
  inhibition: 13.1%
[7]
  inhibition: 6%
[8]
  inhibition: -2%
[9]
  inhibition: 3%
[10]
  inhibition: -2%
[11]
  inhibition: 15%
[12]
  inhibition: 10.8%
[13]
  inhibition: 39.2%
[14]
  inhibition: 16.3%
[15]
  inhibition: 9.05%
[16]
  inhibition: -8.67%
[17]
  inhibition: 1%
[18]
  inhibition: -7%
[19]
  inhibition: 10.3%
[20]
  inhibition: 4.02%
[21]
  inhibition: 7%
[22]
  inhibition: 5.46%
[23]
  inhibition: 11%
Rattus norvegicus [24]
  inhibition: 46%
[25]
  inhibition: -8.63%
[26]
  inhibition: 9%
[27]
  inhibition: 8.85%
[28]
  inhibition: 17.8%
[29]
  inhibition: 6%
[30]
  inhibition: 8%
[31]
  inhibition: 33%
[32]
  inhibition: 3%
[33]
  inhibition: 1%
[34]
  inhibition: -7%
[35]
  inhibition: 22.9%
[36]
  inhibition: 11%
[37]
  inhibition: -8%
Rattus norvegicus [38]
  inhibition: 63.9%
[39]
  inhibition: 20.3%
[40]
  inhibition: -2%
[41]
  inhibition: 2%
[42]
  inhibition: 11.2%
[43]
  inhibition: 18.7%
[44]
  inhibition: 4.31%
[45]
  inhibition: 13%
[46]
  inhibition: 27%
